In ChEMBL document CHEMBL1201862, “PubChem BioAssay data set” (2004):
Activity calls are given as the source filed them. No stated cut-off is given here; in the data, actives have a measured IC50 and inactives only a lower limit.

Target: Envelope glycoprotein gp160 (Human immunodeficiency virus 1, UniProt Q6QLK5)
Assay: cell-free HIV fusion peptide-binding blockers – biochemical, uHTS, fluorescence dequenching, […] (AID 1986)

Chain of Envelope glycoprotein gp160 (Q6QLK5 whole entry, the tested form may be a part): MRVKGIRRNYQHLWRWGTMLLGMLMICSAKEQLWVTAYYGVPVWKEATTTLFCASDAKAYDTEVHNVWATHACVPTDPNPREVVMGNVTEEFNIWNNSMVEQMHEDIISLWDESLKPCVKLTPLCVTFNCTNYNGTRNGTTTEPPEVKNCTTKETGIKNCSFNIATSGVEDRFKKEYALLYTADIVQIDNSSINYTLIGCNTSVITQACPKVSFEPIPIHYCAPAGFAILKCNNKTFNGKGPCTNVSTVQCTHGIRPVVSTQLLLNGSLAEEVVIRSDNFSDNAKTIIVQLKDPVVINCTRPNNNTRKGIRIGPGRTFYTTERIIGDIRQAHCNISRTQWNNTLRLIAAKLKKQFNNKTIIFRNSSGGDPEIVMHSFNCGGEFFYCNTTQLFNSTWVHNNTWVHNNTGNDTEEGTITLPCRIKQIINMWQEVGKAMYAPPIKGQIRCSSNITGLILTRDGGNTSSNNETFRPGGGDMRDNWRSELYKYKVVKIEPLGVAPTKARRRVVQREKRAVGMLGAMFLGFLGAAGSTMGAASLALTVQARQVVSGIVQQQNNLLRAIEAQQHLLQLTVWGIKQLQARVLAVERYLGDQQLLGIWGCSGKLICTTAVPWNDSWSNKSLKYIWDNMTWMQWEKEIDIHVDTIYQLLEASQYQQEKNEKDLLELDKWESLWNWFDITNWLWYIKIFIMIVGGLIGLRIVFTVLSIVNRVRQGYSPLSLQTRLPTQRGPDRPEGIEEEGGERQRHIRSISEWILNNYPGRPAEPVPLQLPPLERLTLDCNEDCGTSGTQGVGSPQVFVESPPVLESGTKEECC

CC(c1ccccc1)N1C(=O)c2ccc(C(=O)Nc3ccc(Br)cc3C(=O)O)cc2C1=O (configuration not stated)
IC50: 14.1 µM (active)

CC(C)(C)c1ccc(S(=O)(=O)/N=C2\C=C(NS(=O)(=O)c3ccccc3)C(=O)c3ccccc32)cc1
IC50: 9.23 µM (active)
